Source: ChEMBL document CHEMBL3639096, “Bivalent inhibitors of IAP proteins and therapeutic methods using the same” (2014)

Legend:
[1] = target: Baculoviral IAP repeat-containing protein 3 (Homo sapiens, UniProt Q13489); assay: (§1) For cIAP-1 BIR3 and cIAP-2 BIR3 assays, a fluorescently labeled Smac mimetic (Smac-2F) was used as the fluorescent probe. The Kd values of Smac-2F to cIAP-1 BIR3 and cIAP-2 BIR3 were determined by monitoring the total fluorescence polarization of mixtures composed with the fluorescent probe at a fixed concentration and proteins with increasing concentrations up to full saturation. Fluorescence polarization values were measured using the Infinite M-1000 plate reader (Tecan U.S., Research Triangle Park, N.C.) in Microfluor 2 96-well, black, round-bottom plates (Thermo Scientific). To each well, 1 nM of SMAC-2F and increasing concentrations of protein were added to a final volume of 125 ul in the assay buffer (100 mM potassium phosphate, pH 7.5).
[2] = target: Baculoviral IAP repeat-containing protein 2 (Homo sapiens, UniProt Q13490); assay: as §1
[3] = target: E3 ubiquitin-protein ligase XIAP (Homo sapiens, UniProt P98170); assay: as §1

Compound	IC50 [1] [nM]	IC50 [2] [nM]	IC50 [3] [nM]
CN[C@@H](C)C(=O)N[C@H]1CN(C(=O)Nc2ccc(CCc3ccc(NC(=O)N4CC[C@H]5CC[C@@H](C(=O)NC(c6ccccc6)c6ccccc6)N5C(=O)[C@@H](NC(=O)[C@H](C)NC)C4)cc3)cc2)CC[C@H]2CCC(C(=O)NC(c3ccccc3)c3ccccc3)N2C1=O (some centres not stated)	< 300	< 300	< 30
CN[C@@H](C)C(=O)N[C@H]1CN(C(=O)Nc2ccc(NC(=O)N3CC[C@H]4CC[C@@H](C(=O)N[C@H]5C[C@@H]5c5ccccc5F)N4C(=O)[C@@H](NC(=O)[C@H](C)NC)C3)cc2)CC[C@H]2CC[C@@H](C(=O)N[C@H]3C[C@@H]3c3ccccc3F)N2C1=O	< 1000	< 1000	< 1000
CN[C@@H](C)C(=O)N[C@H]1CN(C(=O)Nc2ccc(NC(=O)N3CC[C@H]4CC[C@@H](C(=O)N[C@H]5CCC[C@H]5c5ccccc5)N4C(=O)[C@@H](NC(=O)[C@H](C)NC)C3)cc2)CC[C@H]2CC[C@@H](C(=O)N[C@H]3CCC[C@H]3c3ccccc3)N2C1=O	< 1000	< 1000	< 1000
CN[C@@H](C)C(=O)N[C@H]1CN(C(=O)Nc2ccc(NC(=O)N3CC[C@H]4CC[C@@H](C(=O)N[C@H]5C[C@@H]5c5ccc(C(F)(F)F)c(F)c5)N4C(=O)[C@@H](NC(=O)[C@H](C)NC)C3)cc2)CC[C@H]2CC[C@@H](C(=O)N[C@H]3C[C@@H]3c3ccc(C(F)(F)F)c(F)c3)N2C1=O	< 3000	< 3000	< 3000
CN[C@@H](C)C(=O)N[C@H]1CN(C(=O)Nc2ccc(Cc3ccc(NC(=O)N4CC[C@H]5CC[C@@H](C(=O)N[C@H]6C[C@@H]6c6ccccc6)N5C(=O)[C@@H](NC(=O)[C@H](C)NC)C4)cc3)cc2)CC[C@H]2CCC(C(=O)N[C@H]3C[C@@H]3c3ccccc3)N2C1=O (some centres not stated)	< 3000	< 3000	< 1000
CN[C@@H](C)C(=O)N[C@H]1CN(C(=O)NCCCCCCNC(=O)N2CC[C@H]3CC[C@@H](C(=O)N[C@H]4CCC[C@H]4c4ccccc4)N3C(=O)[C@@H](NC(=O)[C@H](C)NC)C2)CC[C@H]2CCC(C(=O)N[C@H]3CCC[C@H]3c3ccccc3)N2C1=O (some centres not stated)	< 3000	< 3000	< 1000
CN[C@@H](C)C(=O)N[C@H]1CN(C(=O)NCCCCCCNC(=O)N2CC[C@H]3CC[C@@H](C(=O)NC4Cc5ccccc5C4)N3C(=O)[C@@H](NC(=O)[C@H](C)NC)C2)CC[C@H]2CCC(C(=O)NC3Cc4ccccc4C3)N2C1=O (some centres not stated)	< 5000	< 10000	< 1000
CN[C@@H](C)C(=O)N[C@H]1CN(C(=O)NCCCCCCNC(=O)N2CC[C@H]3CC[C@@H](C(=O)NCCc4ccccc4)N3C(=O)[C@@H](NC(=O)[C@H](C)NC)C2)CC[C@H]2CCC(C(=O)NCCc3ccccc3)N2C1=O (some centres not stated)	< 5000	< 1000	< 1000
CN[C@@H](C)C(=O)N[C@H]1CN(C(=O)NCCCCCCNC(=O)N2CC[C@H]3CC[C@@H](C(=O)N[C@H]4CC[C@@H]4c4ccccc4)N3C(=O)[C@@H](NC(=O)[C@H](C)NC)C2)CC[C@H]2CCC(C(=O)N[C@H]3CC[C@@H]3c3ccccc3)N2C1=O (some centres not stated)	< 1000	< 1000	< 1000
